Values after ≈ are worked out from the molar mass of the structure shown. Read-outs that look alike come from different tables or passages of the source.
What was measured:
S. pyogenes ATCC 49399 = experiment: MIC against S. pyogenes; format: cell-based; settings: Streptococcus pyogenes, ATCC49399
E. faecalis = experiment: MIC against E. faecalis strains; format: cell-based; settings: Enterococcus faecalis
E. coli ATCC25922 = experiment: MIC against E. coli; format: cell-based; settings: Escherichia coli; E. coli ATCC25922; read-out: MIC
C. difficile ATCC 43255 = experiment: Time-kill assay; format: cell-based, Clostridioides difficile
THP-1 cells = experiment: Lactate dehydrogenase (LDH) cytotoxicity assay; format: cell-based, human; settings: Homo sapiens
[1] = system: C. difficile ATCC 43255 vegetative cells; experiment: Mode of action by scanning electron microscopy (SEM); settings: 8× MIC for 24 h
C. difficile strains = settings: cited from earlier work
[2] = system: Lactobacillus gasseri HM-644; settings: cited from earlier work
[3] = system: Clostridioides difficile infection; settings: CDI patients; cited from earlier work

Compound `O=[N+]([O-])c1cnc(-c2nc(-c3ccc(OC4CCCC4)cc3)no2)[nH]1` [Compound 57, 3-(4-(Cyclopentyloxy)phenyl)-5-(4-nitro-1H-imidazol-2-yl)-1,2,4-oxadiazole] has an MIC (S. pyogenes ATCC 49399) of over 128 µg/mL, an MIC (E. faecalis; E. faecalis 99 (Van R), read-out: MIC) of 128 µg/mL (≈ 375 µM) and an MIC (E. coli ATCC25922) of over 128 µg/mL. The “reduction in bacterial growth (time-kill)” value (from here on “reduction”) (C. difficile ATCC 43255; 4× MIC, 12 h) was at least 3 log10, the “reduction” value (C. difficile ATCC 43255; 8× MIC) was 4 log 10 and the “reduction” value (C. difficile ATCC 43255; all concentrations: 1×, 2×, 4×, 8× MIC) was “Four-log10 reduction”. The IC50 (THP-1 cells; THP-1, 24 h, read-out: LDH (IC50)) was over 128 µg/mL, the IC50 (THP-1 cells; THP-1, read-out: toxicity IC50 (LDH assay)) was over 50 µg/mL and the “effect on vegetative cells by SEM” value [1] was “damage to the cell wall”.
In the case of `Cc1ncc([N+](=O)[O-])n1CCO` [MTZ, metronidazole], the MIC (S. pyogenes ATCC 49399) is reported as over 128 µg/mL, the MIC (E. faecalis) is reported as over 256 µg/mL and the MIC (E. faecalis; ATCC29212) is reported as over 256 µg/mL. For the same compound, the MIC (E. coli ATCC25922) was over 128 µg/mL, the “reduction” value (C. difficile ATCC 43255; 8× MIC) was 4 log 10 and the “IMIC50 (101 strains)” value (C. difficile strains; 101 C. difficile strains) was 0.5 µg/mL. For the same compound, the MIC (C. difficile strains; C. difficile 23828, resistant to FDX) was 0.5 µg/mL (≈ 2.92 µM), the MIC (C. difficile strains; C. difficile 24531, resistant to VAN) was 0.5 µg/mL (≈ 2.92 µM) and the MIC (C. difficile strains; C. difficile 26675, resistant to MTZ) was 4 µg/mL (≈ 23.4 µM). For the same compound, the MIC (C. difficile strains; C. difficile BAA-1803) was 0.5 µg/mL (≈ 2.92 µM), the MIC (C. difficile strains; C. difficile BAA-1870) was 0.5 µg/mL (≈ 2.92 µM) and the MIC50 (C. difficile strains; C. difficile strains of Table 4) was 0.5 µg/mL (≈ 2.92 µM). The MIC (C. difficile strains; strain BAA-1803) was 0.5 µg/mL (≈ 2.92 µM), the MIC (C. difficile strains; strain BAA-1870) was 0.5 µg/mL (≈ 2.92 µM) and the MIC (C. difficile strains; strain HM-745) was 0.5 µg/mL (≈ 2.92 µM). For the same compound, the MIC (C. difficile strains; strain HM-747) was 0.5 µg/mL (≈ 2.92 µM), the MIC (C. difficile strains; strain NR-13430) was 0.5 µg/mL (≈ 2.92 µM) and the MIC (C. difficile strains; strain NR-13431) was 0.5 µg/mL (≈ 2.92 µM). The MIC (C. difficile strains; strain NR-13433) was 0.5 µg/mL (≈ 2.92 µM), the MIC (C. difficile strains; strain NR-13434) was 0.5 µg/mL (≈ 2.92 µM) and the MIC (C. difficile strains; strain NR-13435) was 0.5 µg/mL (≈ 2.92 µM). For the same compound, the MIC (C. difficile strains; strain NR-13436) was 0.5 µg/mL (≈ 2.92 µM), the MIC (C. difficile strains; strain NR-13437) was 0.5 µg/mL (≈ 2.92 µM) and the MIC (C. difficile strains; strain NR-13438) was 0.5 µg/mL (≈ 2.92 µM). The MIC (C. difficile strains; strain NR-13553) was 0.5 µg/mL (≈ 2.92 µM), the MIC (C. difficile strains; strain NR-32883) was 0.5 µg/mL (≈ 2.92 µM) and the MIC (C. difficile strains; strain NR-32884) was 0.5 µg/mL (≈ 2.92 µM). The MIC (C. difficile strains; strain NR-32885) was 0.5 µg/mL (≈ 2.92 µM), the MIC (C. difficile strains; strain NR-32886) was 0.5 µg/mL (≈ 2.92 µM) and the MIC (C. difficile strains; strain NR-32888) was 0.5 µg/mL (≈ 2.92 µM). The MIC (C. difficile strains; strain NR-32890) was 0.5 µg/mL (≈ 2.92 µM), the MIC (C. difficile strains; strain NR-32892) was 0.5 µg/mL (≈ 2.92 µM) and the MIC (C. difficile strains; strain NR-32897) was 0.5 µg/mL (≈ 2.92 µM). The MIC (C. difficile strains; strain NR-32903) was 0.5 µg/mL (≈ 2.92 µM), the MIC (C. difficile strains; strain NR-32904) was 0.5 µg/mL (≈ 2.92 µM) and the MIC (C. difficile strains; strain NR-49277) was 0.5 µg/mL (≈ 2.92 µM). For the same compound, the MIC (C. difficile strains; strain NR-49278) was 0.5 µg/mL (≈ 2.92 µM), the MIC (C. difficile strains; strain NR-49282) was 0.5 µg/mL (≈ 2.92 µM) and the MIC (C. difficile strains; strain NR-49283) was 0.5 µg/mL (≈ 2.92 µM). For the same compound, the MIC (C. difficile strains; strain NR-49284) was 0.5 µg/mL (≈ 2.92 µM), the MIC (C. difficile strains; strain NR-49285) was 0.5 µg/mL (≈ 2.92 µM) and the MIC (C. difficile strains; strain NR-49287) was 0.5 µg/mL (≈ 2.92 µM). The MIC (C. difficile strains; strain NR-49288) was 0.5 µg/mL (≈ 2.92 µM), the MIC (C. difficile strains; strain NR-49289) was 0.5 µg/mL (≈ 2.92 µM) and the MIC (C. difficile strains; strain NR-49293) was 0.5 µg/mL (≈ 2.92 µM). The MIC (C. difficile strains; strain NR-49295) was 0.5 µg/mL (≈ 2.92 µM), the MIC (C. difficile strains; strain NR-49296) was 0.5 µg/mL (≈ 2.92 µM) and the MIC (C. difficile strains; strain NR-49297) was 0.5 µg/mL (≈ 2.92 µM). The MIC (C. difficile strains; strain NR-49299) was 0.5 µg/mL (≈ 2.92 µM), the MIC (C. difficile strains; strain NR-49300) was 0.5 µg/mL (≈ 2.92 µM) and the MIC (C. difficile strains; strain NR-49301) was 0.5 µg/mL (≈ 2.92 µM). The MIC (C. difficile strains; strain NR-49303) was 0.5 µg/mL (≈ 2.92 µM), the MIC (C. difficile strains; strain NR-49304) was 0.5 µg/mL (≈ 2.92 µM) and the MIC (C. difficile strains; strain NR-49306) was 0.5 µg/mL (≈ 2.92 µM). For the same compound, the MIC (C. difficile strains; strain NR-49307) was 0.5 µg/mL (≈ 2.92 µM), the MIC (C. difficile strains; strain NR-49308) was 0.5 µg/mL (≈ 2.92 µM) and the MIC (C. difficile strains; strain NR-49311) was 0.5 µg/mL (≈ 2.92 µM). For the same compound, the MIC (C. difficile strains; strain NR-49312) was 0.5 µg/mL (≈ 2.92 µM), the MIC (C. difficile strains; strain NR-49313) was 0.5 µg/mL (≈ 2.92 µM) and the MIC (C. difficile strains; strain NR-49314) was 0.5 µg/mL (≈ 2.92 µM). The MIC (C. difficile strains; strain NR-49315) was 0.5 µg/mL (≈ 2.92 µM), the MIC (C. difficile strains; strain NR-49316) was 0.5 µg/mL (≈ 2.92 µM) and the MIC (C. difficile strains; strain NR-49317) was 0.5 µg/mL (≈ 2.92 µM). The MIC (C. difficile strains; strain NR-49319) was 0.5 µg/mL (≈ 2.92 µM), the MIC (C. difficile strains; strain NR-49320) was 0.5 µg/mL (≈ 2.92 µM) and the MIC (C. difficile strains; strain NR-49321) was 0.5 µg/mL (≈ 2.92 µM). The MIC (C. difficile strains; strain NR-49325) was 0.5 µg/mL (≈ 2.92 µM), the MIC (C. difficile strains; strain NR-49326) was 0.5 µg/mL (≈ 2.92 µM) and the MIC (C. difficile strains; strain NR-49327) was 0.5 µg/mL (≈ 2.92 µM). For the same compound, the MIC (C. difficile strains; strain RMA23691) was 0.5 µg/mL (≈ 2.92 µM), the MIC (C. difficile strains; strain RMA23828) was 0.5 µg/mL (≈ 2.92 µM) and the MIC (C. difficile strains; strain RMA24531) was 0.5 µg/mL (≈ 2.92 µM). The MIC (C. difficile strains; strain RMA26675) was 4 µg/mL (≈ 23.4 µM), the MIC (C. difficile strains; strain RMA27081) was 0.5 µg/mL (≈ 2.92 µM) and the MIC (C. difficile strains; strain RMA27173) was 4 µg/mL (≈ 23.4 µM). For the same compound, the MIC [2] was over 32 µg/mL, the recurrence of infection [3] was 27% and the “effect on vegetative cells by SEM” value [1] was “No obvious effect”.
